Tests used:
[1] = Gross toxicity and organ histology in LL/2 tumor-bearing mice; type: in vivo, B6D2F1 mice
Method: (§1) Five to ten days after inoculation with the tumor cells, treatment was initiated with either solvent alone for control groups, or solvent with BFA for the treated group. The mice were treated daily for one to two weeks either intraperitoneally (i.p.) or intravenously (i.v.). The mice (weighing approximately 25 g each) were observed daily for the absence or presence of a tumor, as well as for signs of gross toxicity such as weight loss, hair loss, lethargy, and/or dehydration. The body weight for each mouse was recorded daily until the end of treatment. At the termination of treatment, mice were euthanized, and their tumors removed and stored in formalin for sectioning and staining in future studies. In some experiments, organs such as the kidney, spleen, liver, and brain were also stored in formalin (10%) for future histological analysis of organ toxicity.
The toxicity and efficacy of brefeldin A (BFA, 11 mg/kg) in 10% ethanol (in saline) were determined in B6D2F1 mice. On Day 0, mice were inoculated on one flank with 1.25×10^5 LL/2 tumor cells in 50 μl liquid carrier. Five days after inoculation with the tumor cells, mice were randomized into control and treated groups. The mice received daily treatments (0.2 ml, i.p.) for two weeks with either 10% ethanol in phosphate-buffered saline (control) or 10% ethanol in phosphate-buffered saline with BFA (treated). Each mouse in the treated group received a total dose of 0.28 mg of BFA daily.
All mice were observed daily for signs of gross toxicity and the absence or presence of tumor growth. In addition, all mice were weighed daily. […] Efficacy was determined by delay in the appearance of the tumor in the experimental group relative to control.
(§2) The efficacy of brefeldin A (BFA, 12 mg/kg) in 10% ethanol (in saline) was evaluated in B6D2F1 mice with a higher tumor cell burden than used in Example 1. […]
All mice were observed daily for signs of gross toxicity and the absence or presence of tumor growth. […] Efficacy was determined by delay in the appearance of tumor in the experimental group relative to control.

[2] = Gross toxicity in RIF-1 tumor-bearing mice; type: in vivo, C3H mice; conditions: Example 3; 8 mg/kg i.v. daily for eight days
Method: as §1
On Day 0, C3H mice were inoculated on one flank (s.c.) with 2.5×10^5 RIF-1 tumor cells in 50 μl liquid carrier. Ten days following tumor cell inoculation, mice were randomized into control and treated groups. […]
(§3) All mice were observed daily for signs of gross toxicity and the absence or presence of tumor growth. […] Efficacy was determined by tumor growth delay as evidenced by the size and appearance of the tumor in the treated group relative to control.

[3] = system: rat aortic ring explant cultures; test: Ex vivo rat aortic ring explant assay (microvessel outgrowth); type: cell-based, Sprague-Dawley rats; conditions: tested concentrations of 200 nM and above (200, 400, 1000 nM); Day 7; average of three trials
Method: The ex vivo influence of brefeldin A on angiogenesis was evaluated as follows. Male Sprague-Dawley rats weighing approximately 250 g were anesthetized and their thoracic aortas removed carefully to avoid damaging the vessel wall. Aortas were rinsed in serum-free endothelial cell basal medium, the surrounding adventitia removed and cleaned, and the vessels cut into two millimeter (mm) concentric rings. Each ring was embedded in freshly prepared rattail collagen. Following gelation for 30 minutes at 37° C., collagen gel cultures were transferred to 16 mm wells (4 well plate), each containing 0.5 ml of serum free (MCBD 131) medium. Brefeldin A was dissolved in DMSO and mixed with serum free medium at final concentrations of 40 nM 100 nM, 200 nM, 400 nM, and 1000 nM immediately prior to the addition of media to collagen-embedded rat aortic ring explant cultures. The final concentration of DMSO in treated and control cultures was 0.02%. Explant cultures were incubated at 35.5° C. in a 5% CO2 humidified atmosphere, and the media replaced every two days over the course of the 8-10 day study. Visual counts of microvessel outgrowths from replicate explant cultures were performed using bright field microscopy during microvessel peak growth (Day 7).
Data were expressed as percent inhibition of microvessel growth relative to vehicle-treated control cultures (FIG. 8). […]

RIF-1 tumors = test: In vivo efficacy in mice carrying RIF-1 (radiation induced fibrosarcoma-1) tumors; design: species or system C3H mice; conditions: Example 3
Method: (§4) For Examples 1-3, the pharmaceutical formulations were prepared just prior to use. Various amounts of brefeldin A (BFA) (mg of drug/kg animal's body weight) were weighed out, and solvent (varying amounts of ethanol in saline) was then added. The mixtures were either vortexed (mechanical mixing) or sonicated until the drug was either completely dissolved or only a very small amount appeared to settle in the bottom the test tube.
(§5) In vivo efficacy was determined using either inbred C3H or hybrid B6D2F1 mice carrying RIF-1 (radiation induced firbrosarcoma-1) or LL/2 (Lewis lung carcinoma) tumors, respectively. The tumor cells were kept in a CO2/O2 atmosphere at 37° C., and grown in monolayers. When confluent, cells were rinsed with ice-cold phosphate buffered ethylenediamine tetraacetic acid (EDTA), followed by trypsin/EDTA treatment for about 3 minutes at 37° C. The cells were then dispersed by the addition of medium with serum and spun down using a centrifuge, then washed once in phosphate-buffered saline (PBS) prior to suspending at the desired density (cells/ml) in sterile Hank's balanced salt solution (HBSS). The cells were then inoculated subcutaneously (s.c.) with either a 100 μl or 50 μl injection on one flank of each mouse to provide the desired number of cells (1.25×10^5, 2.5×10^5 or 5.0×10^5) per site.
Five to ten days after inoculation with the tumor cells, treatment was initiated with either solvent alone for control groups, or solvent with BFA for the treated group. The mice were treated daily for one to two weeks either intraperitoneally (i.p.) or intravenously (i.v.). […] The body weight for each mouse was recorded daily until the end of treatment. […]
The efficacy of a lower dose of BFA (8 mg/kg), in a lower concentration of ethanol (1.0%) in phosphate-buffered saline, relative to Examples 1 and 2 was determined. […]
as §3

[4] = system: Human umbilical vein endothelial cells (HUVECs); test: In vitro capillary tube formation assay on Matrigel; type: cell-based; conditions: tested concentrations of 4.0 nM and above (4.0, 40, 100, 400 nM); 18 hours
Method: The in vitro influence of brefeldin A on angiogenesis was evaluated. Human umbilical vein endothelial cells (HUVECs) were cultured in medium EBM-2 complete™ (BioWhittaker, Inc., Baltimore, Md.). Matrigel® (200 μl, synthetic basement membrane substrate) was pipetted gently to avoid air bubbles on the surface of a 48-well plate. Following application of Matrigel® substrate, the plate was placed in an incubator at 37° C. for 30 minutes to promote gelling. HUVECs were harvested from tissue culture flasks, counted, and diluted to 15×10^4/ml. The cell suspension (200 μl) was added to the Matrigel® substrate, such that the final concentration was 30,000 cells/well. Two wells/concentration were used. For evaluation of antiangiogenic activity, a 0.4 mM BFA stock (in dimethyl sulfoxide, DMSO) was diluted to a final concentration of 400, 100, 40, 4.0, and 0.4 nM before adding cells. The final DMSO concentration was 0.02%. […] To evaluate capillary tube formation, plates were viewed under phase contrast low magnification (10×), a photo reticule was used to define the area, and the capillary tube network was counted within the designated area. Only complete tubes that were inside the rectangle were counted.
Data were expressed as percent of complete capillary tube formation relative to untreated control cultures incubated under the same conditions (control=100%). […]

[5] = system: LL/2 (Lewis lung carcinoma) tumors; test: In vivo efficacy in mice carrying LL/2 (Lewis lung carcinoma) tumors; design: species or system B6D2F1 mice
Method: as §4, §5, §1
The toxicity and efficacy of brefeldin A (BFA, 11 mg/kg) in 10% ethanol (in saline) were determined in B6D2F1 mice. On Day 0, mice were inoculated on one flank with 1.25×10^5 LL/2 tumor cells in 50 μl liquid carrier. […]
All mice were observed daily for signs of gross toxicity and the absence or presence of tumor growth. […] Efficacy was determined by delay in the appearance of the tumor in the experimental group relative to control.
as §2

[6] = Example 2, 12 mg/kg i.p. daily for two weeks, 5.0×10^5 LL/2 cells

C[C@H]1CCC/C=C/[C@@H]2C[C@H](O)C[C@H]2[C@H](O)/C=C/C(=O)O1 [brefeldin A]
gross toxicities (weight loss, hair loss, lethargy, dehydration) ([1]; Example 1, 11 mg/kg i.p. daily for two weeks): not observed | toxicity-related effects in brain, kidney, liver, spleen ([1]; Example 1, 11 mg/kg i.p. daily for two weeks, H&E histology): no toxicity-related effects | gross toxicity (weight loss (FIG. 4), hair loss, lethargy) ([1]; Example 2, 12 mg/kg i.p. daily for two weeks): no gross toxicity | gross toxicity (weight loss, hair loss, lethargy, dehydration) [2]: no gross toxicity was observed | inhibition of angiogenesis (microvessel growth relative to vehicle-treated control) [3]: more than 50% | vessel density in tumor sections (qualitative) (RIF-1 tumors; 8 mg/kg i.v. daily for eight days): less vessel density | tumor size relative to control (FIG. 6) (RIF-1 tumors; 8 mg/kg i.v. daily for eight days in 1.0% ethanol, 2.5×10^5 RIF-1 cells): significantly smaller | tumor invasiveness on harvesting (RIF-1 tumors; 8 mg/kg i.v. daily for eight days, control tumors penetrated muscle): remained relatively localized and relatively easy to remove | inhibition of angiogenesis (complete capillary tube formation relative to untreated control) [4]: more than 50% | presence of tumor (gross observation, FIG. 1) ([5]; Example 1, 11 mg/kg i.p. daily for two weeks in 10% ethanol, 1.25×10^5 LL/2 cells): no evidence of tumor was observed | tumor at inoculation site (skin sample histology, FIG. 2A) ([5]; Example 1, 11 mg/kg i.p. daily for two weeks, after final treatment): No evidence of tumor at the injection site | tumor growth delay (FIG. 3) [5, 6]: significant tumor growth delay | tumor size reduction relative to control group [5, 6]: at least 25%
